Measured values published in patent US20240382417A1, “Compositions Comprising Guaifenesin and Eriodictyol” (SYMRISE AG, priority 2018, published 2024).
Marks after values point to notes of the source that are not given here.

Columns and labels:
[1] = test system: HGT-1 cells; experiment: guaifenesin-induced acid (proton) secretion in HGT-1 cells; type: cell-based, human; settings: for proton secretory activity (log2 transformed ratio of treated vs. untreated cells): mean ± SEM
Text: Human gastric tumour cell line 1 (HGT-1; Laboisse C. L.; Augeron C.; Couturier-Turpin M. H.; Gespach C.; Cheret A. M.; Potet F., Characterization of a newly established human gastric cancer cell line HGT-1 bearing histamine H2-receptors, Canc. Res., 1982, 42, 1541 to 1548) is a suitable screening tool for detecting the interaction of bitter agents and bitter modulating substances (Liszt, K. I.; Hans, J.; Ley, J. P.; Kock, E.; Somoza, V., Characterization of bitter compounds via modulation of proton secretion in human gastric parietal cells in culture, J. Agric. Food Chem., 2018, 66 (10), 2295-2300.). Therefore, the effect of eriodictyol on guaifenesin-induced acid secretion in the HGT-1 cell line was determined to predict the modulation of guaifenesin-induced bitterness by eriodictyol. To this aim, HGT-1 cells were cultured under standard conditions and passaged at ca. 80% confluence. […] HGT-1 cells were pre-loaded with (acetyloxy) methyl-3-(acetyloxy)-10-(dimethylamino)-3′-oxo-spiro[7H-benzo [c]xanthene-7,1′(3H)-isobenzofuran]-ar′-carboxylate and incubated in 130 mM NaCl 130, 4.7 mM KCl, 1.3 mM CaCl2, 1.2 mM MgSO4, 1.2 mM KH2PO4, 11.7 mM glucose, 10 mM HEPES 10, 20 μM 4,4′-Diisothiocyanatostilbene-2,2′-disulfonic acid disodium and 20 μM 5-(N-Ethyl-N-isopropyl) amiloride at pH 7.4. Fluorescence recordings were performed with an excitation wavelength of 488 nm and monitoring the emission wavelengths of 580 nm and 640 nm, respectively, each with a 20 nm bandwidth. […]
(§1) The data in Table 1 are presented as mean±SEM derived from 7 biological replicates and 14 to 21 technical replicates. Outliers were identified using the Nalimov test, statistical significance was tested one-way ANOVA with Tukey's range test for multiple comparisons and Bonferroni correction, establishing the threshold for significance at p<0.0071. Accordingly, data are marked with * (p<0.0071), ** (p<0.0014) or *** (p<0.00014). Control: untreated cells
as §1, with “Table 2” for “Table 1”

[2] = test system: guaifenesin bitterness; settings: 200 ppm (0.2 mg/ml) HED against 13 mg/ml guaifenesin; cited from earlier work
[3] = test system: trained sensory panel; experiment: sensory panel test of guaifenesin-induced bitterness perception (sip and spit, randomized comparison); type: in vivo, human; settings: guaifenesin used in combination with eriodictyol; refers to Table 3
Description: To verify the effect of eriodictyol on guaifenesin-induced bitterness perception, an aqueous solution of 13 g/l guaifenesin (1) was tested against an aqueous solution containing 13 g/l guaifenesin and 20 mg/l eriodictyol (2) or 100 mg/l homoeriodictyol (3). The test was conducted as a randomized comparison test in a trained sensory panel (n=20 to 30) via a sip and spit procedure. The panelists tasted both solutions in a blinded fashion and rated bitterness on a scale of 0 to 100.

## COc1cc([C@@H]2CC(=O)c3c(O)cc(O)cc3O2)ccc1O (stereo in doubt) [homoeriodictyol, (2S)-/(2R)-5,7-Dihydroxy-2-(4-hydroxy-3-methoxyphenyl)-4-chromanone]
[1]; 10 mM guaifenesin ± 3 μM homoeriodictyol, timepoint 0 min
  proton secretory activity (log2 transformed ratio of treated vs. untreated cells): −0.2514 ± 0.0260
[1]; 10 mM guaifenesin ± 3 μM homoeriodictyol, timepoint 5 min
  proton secretory activity (log2 transformed ratio of treated vs. untreated cells): −0.1923 ± 0.0304
[1]; 10 mM guaifenesin ± 3 μM homoeriodictyol, timepoint 10 min
  proton secretory activity (log2 transformed ratio of treated vs. untreated cells): −0.2547 ± 0.0320
[1]; 10 mM guaifenesin ± 3 μM homoeriodictyol, timepoint 15 min
  proton secretory activity (log2 transformed ratio of treated vs. untreated cells): −0.2538 ± 0.0317
[1]; 10 mM guaifenesin ± 3 μM homoeriodictyol, timepoint 20 min
  proton secretory activity (log2 transformed ratio of treated vs. untreated cells): −0.2677 ± 0.0264
[1]; 10 mM guaifenesin ± 3 μM homoeriodictyol, timepoint 25 min
  proton secretory activity (log2 transformed ratio of treated vs. untreated cells): −0.2472 ± 0.0296
[1]; 10 mM guaifenesin ± 3 μM homoeriodictyol, timepoint 30 min
  proton secretory activity (log2 transformed ratio of treated vs. untreated cells): −0.2493 ± 0.0300
[1]; 10 mM guaifenesin ± 30 μM homoeriodictyol, timepoint 0 min
  proton secretory activity (log2 transformed ratio of treated vs. untreated cells): −0.2845 ± 0.0235
[1]; 10 mM guaifenesin ± 30 μM homoeriodictyol, timepoint 5 min
  proton secretory activity (log2 transformed ratio of treated vs. untreated cells): −0.1702 ± 0.0265
[1]; 10 mM guaifenesin ± 30 μM homoeriodictyol, timepoint 10 min
  proton secretory activity (log2 transformed ratio of treated vs. untreated cells): −0.1272 ± 0.0263*
[1]; 10 mM guaifenesin ± 30 μM homoeriodictyol, timepoint 15 min
  proton secretory activity (log2 transformed ratio of treated vs. untreated cells): −0.1934 ± 0.0259
[1]; 10 mM guaifenesin ± 30 μM homoeriodictyol, timepoint 20 min
  proton secretory activity (log2 transformed ratio of treated vs. untreated cells): −0.2282 ± 0.0260
[1]; 10 mM guaifenesin ± 30 μM homoeriodictyol, timepoint 25 min
  proton secretory activity (log2 transformed ratio of treated vs. untreated cells): −0.1601 ± 0.0206
[1]; 10 mM guaifenesin ± 30 μM homoeriodictyol, timepoint 30 min
  proton secretory activity (log2 transformed ratio of treated vs. untreated cells): −0.2187 ± 0.0244
[1]; co-incubation of 10 mM guaifenesin with 30 μM homoeriodictyol
  inhibition of proton secretion compared with eriodictyol: did not exhibit such a pronounced inhibition
[1]; co-incubation of 10 mM guaifenesin with 30 μM homoeriodictyol, only the time point at 10 min (p<0.0071)
  change in proton secretion compared to 10 mM guaifenesin alone: significant decrease
[2]
  reduction in guaifenesin bitterness: about 40%

## O=C1CC(c2ccc(O)c(O)c2)Oc2cc(O)cc(O)c21 [eriodictyol, (2S)-/(2R)-2-(3,4-dihydroxyphenyl)-5,7-dihydroxy-4-chromanone]
[3]
  reduction of bitterness of guaifenesin: ≥ 35%
[1]; 10 mM guaifenesin + 3 μM eriodictyol, timepoint 0 min
  proton secretory activity (log2 transformed ratio of treated vs. untreated cells): −0.3389 ± 0.0274
[1]; 10 mM guaifenesin + 3 μM eriodictyol, timepoint 5 min
  proton secretory activity (log2 transformed ratio of treated vs. untreated cells): −0.3351 ± 0.0246
[1]; 10 mM guaifenesin + 3 μM eriodictyol, timepoint 10 min
  proton secretory activity (log2 transformed ratio of treated vs. untreated cells): −0.2874 ± 0.0241
[1]; 10 mM guaifenesin + 3 μM eriodictyol, timepoint 15 min
  proton secretory activity (log2 transformed ratio of treated vs. untreated cells): −0.2595 ± 0.0264
[1]; 10 mM guaifenesin + 3 μM eriodictyol, timepoint 20 min
  proton secretory activity (log2 transformed ratio of treated vs. untreated cells): −0.2622 ± 0.0286
[1]; 10 mM guaifenesin + 3 μM eriodictyol, timepoint 25 min
  proton secretory activity (log2 transformed ratio of treated vs. untreated cells): −0.3259 ± 0.0279
[1]; 10 mM guaifenesin + 3 μM eriodictyol, timepoint 30 min
  proton secretory activity (log2 transformed ratio of treated vs. untreated cells): −0.3237 ± 0.0296
[1]; 10 mM guaifenesin + 30 μM eriodictyol, timepoint 0 min
  proton secretory activity (log2 transformed ratio of treated vs. untreated cells): −0.2324 ± 0.0297
[1]; 10 mM guaifenesin + 30 μM eriodictyol, timepoint 5 min
  proton secretory activity (log2 transformed ratio of treated vs. untreated cells): −0.2396 ± 0.0252
[1]; 10 mM guaifenesin + 30 μM eriodictyol, timepoint 10 min
  proton secretory activity (log2 transformed ratio of treated vs. untreated cells): −0.1630 ± 0.0308***
[1]; 10 mM guaifenesin + 30 μM eriodictyol, timepoint 15 min
  proton secretory activity (log2 transformed ratio of treated vs. untreated cells): −0.1472 ± 0.0302**
[1]; 10 mM guaifenesin + 30 μM eriodictyol, timepoint 20 min
  proton secretory activity (log2 transformed ratio of treated vs. untreated cells): −0.1496 ± 0.0269**
[1]; 10 mM guaifenesin + 30 μM eriodictyol, timepoint 25 min
  proton secretory activity (log2 transformed ratio of treated vs. untreated cells): −0.1478 ± 0.0283***
[1]; 10 mM guaifenesin + 30 μM eriodictyol, timepoint 30 min
  proton secretory activity (log2 transformed ratio of treated vs. untreated cells): −0.1886 ± 0.0272*
[1]; co-incubation of 10 mM guaifenesin with 30 μM eriodictyol, from 10 min onwards
  change in proton secretory activity of HGT-1 cells compared to 10 mM guaifenesin alone: significant decrease

## COc1ccccc1OCC(O)CO (centres unmarked) [guaifenesin, 3-(2-methoxyphenoxy-) 1,2-propanediol]
[1]; 10 mM guaifenesin alone, Table 1, timepoint 0 min
  proton secretory activity (log2 transformed ratio of treated vs. untreated cells): −0.3130 ± 0.0306
[1]; 10 mM guaifenesin alone, Table 1, timepoint 5 min
  proton secretory activity (log2 transformed ratio of treated vs. untreated cells): −0.2720 ± 0.0225
[1]; 10 mM guaifenesin alone, Table 1, timepoint 10 min
  proton secretory activity (log2 transformed ratio of treated vs. untreated cells): −0.3283 ± 0.0253
[1]; 10 mM guaifenesin alone, Table 1, timepoint 15 min
  proton secretory activity (log2 transformed ratio of treated vs. untreated cells): −0.2945 ± 0.0277
[1]; 10 mM guaifenesin alone, Table 1, timepoint 20 min
  proton secretory activity (log2 transformed ratio of treated vs. untreated cells): −0.2885 ± 0.0266
[1]; 10 mM guaifenesin alone, Table 1, timepoint 25 min
  proton secretory activity (log2 transformed ratio of treated vs. untreated cells): −0.3135 ± 0.0260
[1]; 10 mM guaifenesin alone, Table 1, timepoint 30 min
  proton secretory activity (log2 transformed ratio of treated vs. untreated cells): −0.3241 ± 0.0280
[1]; 10 mM guaifenesin alone, Table 2, timepoint 0 min
  proton secretory activity (log2 transformed ratio of treated vs. untreated cells): −0.2712 ± 0.0190
[1]; 10 mM guaifenesin alone, Table 2, timepoint 5 min
  proton secretory activity (log2 transformed ratio of treated vs. untreated cells): −0.2170 ± 0.0217
[1]; 10 mM guaifenesin alone, Table 2, timepoint 10 min
  proton secretory activity (log2 transformed ratio of treated vs. untreated cells): −0.2543 ± 0.0268
[1]; 10 mM guaifenesin alone, Table 2, timepoint 15 min
  proton secretory activity (log2 transformed ratio of treated vs. untreated cells): −0.2518 ± 0.0274
[1]; 10 mM guaifenesin alone, Table 2, timepoint 20 min
  proton secretory activity (log2 transformed ratio of treated vs. untreated cells): −0.2081 ± 0.0243
[1]; 10 mM guaifenesin alone, Table 2, timepoint 25 min
  proton secretory activity (log2 transformed ratio of treated vs. untreated cells): −0.2454 ± 0.0265
[1]; 10 mM guaifenesin alone, Table 2, timepoint 30 min
  proton secretory activity (log2 transformed ratio of treated vs. untreated cells): −0.2730 ± 0.0241
